The numbers were not newly measured in US20170189402A1, “SOLID DOSAGE FORMS” (AbbVie Inc., priority 2012, published 2017), which cites them from elsewhere.

The conditions of series [1]: administered orally.

On to `Nc1ccn([C@@H]2CS[C@H](CO)O2)c(=O)n1` [Lamivudine], for which, in series [1], the bioavailability entry is given as “over 80%”.

With `Cc1cccc(C)c1OCC(=O)N[C@@H](Cc1ccccc1)[C@@H](O)C[C@H](Cc1ccccc1)NC(=O)[C@H](C(C)C)N1CCCNC1=O` [lopinavir], the solubility result is on record as “poorly soluble”.
